Data from publication PMC5053896 (Journal of the American Chemical Society, 2016).
In brackets after ≈: the same amount, converted by molar mass. Like-named read-outs stand apart in the source and are kept apart here.

Legend:
[1] = target: MurX (Mycobacterium tuberculosis, UniProt P9WMW7); test: biochemical; assay type: biochemical, M. tuberculosis
[2] = system: M. tuberculosis; test: M. tuberculosis growth inhibition, microdilution broth method; assay type: cell-based; settings: for M. tuberculosis growth inhibition MIC50: microdilution broth method
[3] = system: Gram-positive and Gram-negative bacteria; settings: both Gram-positive and Gram-negative bacteria; cited from earlier work
[4] = system: Staphylococcus aureus; settings: Staphylococcus aureus infected mice; cited from earlier work
[5] = target: WecA (polyprenyl phosphate-GlcNAc-1-phosphate transferase) (Mycobacterium tuberculosis, UniProt P9WMW5); assay type: biochemical, M. tuberculosis; settings: for IC50: read-out: WecA inhibition IC50
[6] = system: bacteria; settings: cited from earlier work
[7] = system: MraY; settings: read-out: MraY enzyme inhibitory activity IC50; cited from earlier work

What does the source list for `CO[C@H]1[C@@H](O)[C@H](n2ccc(=O)[nH]c2=O)O[C@@H]1[C@@H](O[C@H]1OC(C(=O)N[C@H]2CCCCNC2=O)=C[C@H](O)[C@@H]1O)C(N)=O` [Capuramycin]?
IC50 [1]: 220 nM; MIC50 ([2]; Mycobacterium tuberculosis, read-out: M. tuberculosis growth inhibition MIC50): 6.25 µg/mL (≈ 11 µM)

With `CO[C@H]1[C@H](O[C@H]([C@H]2O[C@@H](n3ccc(=O)[nH]c3=O)[C@H](O)[C@@H]2O)[C@H](NCCCNC(=O)[C@@H](NC(=O)[C@@H](NC(=O)N[C@H](C(=O)O)C(C)C)[C@@H]2CCN=C(N)N2)[C@@H](OC(=O)CCCCCCCCCCCCN(O)C(=N)N)C(C)C)C(=O)O)O[C@H](CN)[C@H]1O` [Muraymycin A1] as the molecule, how does the bactericidal activity [3] read?
The bactericidal activity was “bactericidal activity”.

What about the ED50 [4] of the same molecule?
Its ED50 is 1.1 mg/kg.

For `CO[C@H]1[C@H](O[C@H]([C@H]2O[C@@H](n3ccc(=O)[nH]c3=O)[C@H](O)[C@@H]2O)[C@H](NCCCNC(=O)[C@H](CC(C)C)NC(=O)[C@@H](NC(=O)N[C@H](C(=O)O)C(C)C)[C@@H]2CCN=C(N)N2)C(=O)O)O[C@H](CN)[C@H]1O` [Muraymycin D1 (1), Muraymycin D1], which IC50 [5] is on record?
Its IC50 is 690 nM.

What about the “M. tuberculosis growth inhibition MIC50” value [2] of the same molecule?
The value was 1.56 µg/mL.

And the “M. tuberculosis growth inhibition MIC50” value ([2]; listed as 1)?
The value was 1.56 to 6.25 µg/mL.

With `COC1C(C(OC2OC(C(=O)NC3CCCCNC3=O)=CC(O)C2O)C(N)=O)OC(n2ccc(=O)[nH]c2=O)C1OC` (stereo not shown) [UT-01320] as the molecule, how does the IC50 [5] read?
The IC50 was 60 nM.

And the “M. tuberculosis growth inhibition MIC50” value [2]?
Its value is 1.56 µg/mL.

With `CC(C)C[C@H](NC(=O)[C@@H](NC(=O)N[C@H](C(=O)O)C(C)C)[C@@H]1CCN=C(N)N1)C(=O)NCCCN[C@H](C(=O)O)[C@H](O[C@@H]1O[C@H](CN)[C@@H](O)[C@H]1O)[C@H]1O[C@@H](n2ccc(=O)[nH]c2=O)[C@H](O)[C@@H]1O` [muraymycin D2] as the molecule, how does the antibacterial activity [6] read?
Its antibacterial activity is “no significant antibacterial activity”.

What about the IC50 [7] of the same molecule?
Its IC50 is 10 nM.

With “Muraymycin D1-amide [Muraymycin D1-amide (2)]” as the molecule, how does the “M. tuberculosis growth inhibition MIC50” value [2] read?
The value was 1.56 µg/mL.

And the “M. tuberculosis growth inhibition MIC50” value ([2]; listed as 2)?
The value was 1.56 to 6.25 µg/mL.

With “Muraymycin D1-diamide [Muraymycin D1-diamide (3)]” as the molecule, how does the “Inhibition of WecA enzyme relative to 1 and 2” value [5] read?
Its value is ~ 10 times.

And the “M. tuberculosis growth inhibition MIC50” value [2]?
The value was 6.25 µg/mL.

What about the “M. tuberculosis growth inhibition MIC50” value ([2]; listed as 3) of the same molecule?
Its value is 1.56 to 6.25 µg/mL.

For Tunicamycin, which IC50 [5] is on record?
Its IC50 is 150 nM.

And the IC50 ([1]; read-out: MurX inhibition IC50)?
The IC50 was 3380 nM.

What about the “M. tuberculosis growth inhibition MIC50” value [2] of the same molecule?
Its value is 3.13 µg/mL.
